Source: patent US7951815B2, “Substituted 1,4,8-triazaspiro [4,5]decan-2-one compounds” (Gruenenthal GmbH, priority 2004, dated 2011)

What was measured:
[1] = test system: batrachotoxin (BTX) binding site of the sodium channel; test: Affinity to the batrachotoxin (BTX) binding site of the sodium channel; details: Table III; rat cerebrocortex synaptosomes; test concentration not given
NA transporter = test: Inhibition of noradrenaline uptake in rat brain synaptosomes; assay type: biochemical; details: Table III
5-HT transporter = target: T1, 5-HT transporter (Rattus norvegicus, UniProt P31652); test: Inhibition of 5-HT uptake in rat brain synaptosomes; assay type: biochemical; details: Table III, rat, 1 μM; for inhibition at 1 µM: read-out: Uptake 5-HT, % inhibition
T1 construct: synaptosomes of rat brain areas are freshly isolated; from tissue; host or cells: rat brain synaptosomes (P2 fraction) from marrow and pons
T1 sequence (P31652 whole entry): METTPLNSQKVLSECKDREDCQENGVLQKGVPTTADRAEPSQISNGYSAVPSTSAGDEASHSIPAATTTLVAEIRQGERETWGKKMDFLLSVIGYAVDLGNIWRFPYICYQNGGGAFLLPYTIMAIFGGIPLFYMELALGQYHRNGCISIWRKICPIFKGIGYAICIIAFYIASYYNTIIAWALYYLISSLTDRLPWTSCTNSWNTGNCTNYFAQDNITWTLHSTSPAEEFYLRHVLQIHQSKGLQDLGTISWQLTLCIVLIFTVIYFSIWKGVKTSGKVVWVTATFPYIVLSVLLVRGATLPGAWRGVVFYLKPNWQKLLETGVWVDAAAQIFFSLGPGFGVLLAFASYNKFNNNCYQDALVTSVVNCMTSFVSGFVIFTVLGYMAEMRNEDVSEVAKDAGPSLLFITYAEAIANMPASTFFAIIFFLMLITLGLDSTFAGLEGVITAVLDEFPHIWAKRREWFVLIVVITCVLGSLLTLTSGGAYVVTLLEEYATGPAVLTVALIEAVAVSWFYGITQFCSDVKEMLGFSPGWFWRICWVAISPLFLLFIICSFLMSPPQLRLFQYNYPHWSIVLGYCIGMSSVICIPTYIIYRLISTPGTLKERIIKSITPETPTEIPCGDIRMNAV

Cc1cc(C(=O)N2CCC3(CC2)NC(CC(C)C)C(=O)N3Cc2c(Cl)cccc2Cl)c(C)o1 (centres unmarked) [Example 295, 1-(2,6-Dichlorobenzyl)-8-(2,5-dimethylfuran-3-carbonyl)-3-isobutyl-1,4,8-triazaspiro[4,5]decan-2-one]
BTX inhibition [1]: 63
Uptake (NA), rat, 10 μM, % inhibition (NA transporter): 36%

C=CCN1C(=O)C(CCSC)NC12CCN(C(=O)c1cccnc1SC)CC2 (centres unmarked) [Example 290, 1-Allyl-3-(2-methylsulfanylethyl)-8-(2-methylsulfanylpyridin-3-carbonyl)-1,4,8-triazaspiro[4,5]decan-2-one]
BTX inhibition [1]: 30
Uptake (NA), rat, 10 μM, % inhibition (NA transporter): 31%

COc1cc(OC)cc(C(=O)N2CCC3(CC2)NC(=O)C(CC(C)C)N3)c1 (centres unmarked) [Example 92, 8-(3,5-Dimethoxybenzoyl)-3-isobutyl-1,4,8-triazaspiro[4,5]decan-2-one]
inhibition at 1 µM (5-HT transporter): 30%
Uptake (NA), rat, 10 μM, % inhibition (NA transporter): 30%

Cc1onc(-c2c(F)cccc2Cl)c1C(=O)N1CCC2(CC1)NC(=O)C(Cc1ccccc1)N2 (centres unmarked) [Example 115, 3-Benzyl-8-[3-(2-chloro-6-fluorophenyl)-5-methylisoxazole-4-carbonyl]-1,4,8-triazaspiro[4,5]decan-2-one]
inhibition at 1 µM (5-HT transporter): 30%
Uptake (NA), rat, 10 μM, % inhibition (NA transporter): 34%

Cc1cccc(C(=O)N2CCC3(CC2)NCC(=O)N3CCOc2ccccc2)c1 [Example 86, 8-(3-Methylbenzoyl)-1-(2-phenoxyethyl)-1,4,8-triazaspiro[4,5]decan-2-one]
inhibition at 1 µM (5-HT transporter): 50%
Uptake (NA), rat, 10 μM, % inhibition (NA transporter): 38%

CC(C)C1NC2(CCN(C(=O)c3c(F)cccc3Cl)CC2)NC1=O (centres unmarked) [Example 116, 8-(2-Chloro-6-fluorobenzoyl)-3-isopropyl-1,4,8-triazaspiro[4,5]decan-2-one]
inhibition at 1 µM (5-HT transporter): 37%
Uptake (NA), rat, 10 μM, % inhibition (NA transporter): 34%

Cc1ccc(C(=O)N2CCC3(CC2)NC(Cc2ccccc2)C(=O)N3C)cc1F (centres unmarked) [Example 148, 3-Benzyl-8-(3-fluoro-4-methylbenzoyl)-1-methyl-1,4,8-triazaspiro[4,5]decan-2-one]
inhibition at 1 µM (5-HT transporter): 43%
Uptake (NA), rat, 10 μM, % inhibition (NA transporter): 32%

CC(=O)OC(C(=O)N1CCC2(CC1)NC(Cc1ccccc1)C(=O)N2C)c1ccccc1 (centres unmarked) [Example 113, Ethyl 2-(3-benzyl-1-methyl-2-oxo-1,4,8-triazaspiro[4,5]dec-8-yl)-2-oxo-1-phenylacetate]
Uptake 5-HT, rat, 1 μM, % inhibition (5-HT transporter): 35%
Uptake (NA), rat, 10 μM, % inhibition (NA transporter): 46%

C#CCN1C(=O)C(Cc2ccccc2)NC12CCN(C(=O)c1c(F)cccc1Cl)CC2 (centres unmarked) [Example 210, 3-Benzyl-8-(2-chloro-6-fluorobenzoyl)-1-prop-2-ynyl-1,4,8-triazaspiro[4,5]decan-2-one]
inhibition at 1 µM (5-HT transporter): 51%
Uptake (NA), rat, 10 μM, % inhibition (NA transporter): 31%

O=C1NC2(CCN(C(=O)c3ccc4ccccc4c3)CC2)NC1Cc1ccccc1 (centres unmarked) [Example 122, 3-Benzyl-8-(naphthalin-2-carbonyl)-1,4,8-triazaspiro[4,5]decan-2-one]
inhibition at 1 µM (5-HT transporter): 34%
Uptake (NA), rat, 10 μM, % inhibition (NA transporter): 38%

CCCC(C)C(=O)N1CCC2(CC1)NCC(=O)N2Cc1ccccc1C#N (centres unmarked) [Example 71, 2-[8-(2-Methylpentanoyl)-2-oxo-1,4,8-triazaspiro[4,5]dec-1-ylmethyl]benzonitrile]
inhibition at 1 µM (5-HT transporter): 53%
Uptake (NA), rat, 10 μM, % inhibition (NA transporter): 52%

CCCCN1C(=O)C(CCSC)NC12CCN(C(=O)Cc1ccc(OC)c(OC)c1)CC2 (centres unmarked) [Example 97, 1-Butyl-8-[2-(3,4-dimethoxyphenyl)acetyl]-3-(2-methylsulfanylethyl)-1,4,8-triazaspiro[4,5]decan-2-one]
inhibition at 1 µM (5-HT transporter): 67%
Uptake (NA), rat, 10 μM, % inhibition (NA transporter): 30%

CSCCC1NC2(CCN(C(=O)CC3NC(=O)NC3=O)CC2)N(Cc2ccc(F)cc2)C1=O (centres unmarked) [Example 100, 5-{2-[1-(4-Fluorobenzyl)-3-(2-methylsulfanylethyl)-2-oxo-1,4,8-triazaspiro[4,5]dec-8-yl]-2-oxoethyl}imidazolidine-2,4-dione]
inhibition at 1 µM (5-HT transporter): 42%
Uptake (NA), rat, 10 μM, % inhibition (NA transporter): 32%

COCC(=O)N1CCC2(CC1)NC(CCSC)C(=O)N2Cc1cccc(C#N)c1 (centres unmarked) [Example 112, 3-[8-(2-Methoxyacetyl)-3-(2-methylsulfanylethyl)-2-oxo-1,4,8-triazaspiro[4,5]dec-1-ylmethyl]benzonitrile]
inhibition at 1 µM (5-HT transporter): 43%
Uptake (NA), rat, 10 μM, % inhibition (NA transporter): 42%

CC(C)C1NC2(CCN(C(=O)c3c(F)c(F)c(F)c(F)c3F)CC2)NC1=O (centres unmarked) [Example 95, 3-Isopropyl-8-pentafluorobenzoyl-1,4,8-triazaspiro[4,5]decan-2-one]
Uptake (NA), rat, 10 μM, % inhibition (NA transporter): 31%

CSCCC1NC2(CCN(C(=O)c3ccccn3)CC2)N(Cc2ccc(F)cc2)C1=O (centres unmarked) [Example 109, 1-(4-Fluorobenzyl)-3-(2-methylsulfanylethyl)-8-(pyridin-2-carbonyl)-1,4,8-triazaspiro[4,5]decan-2-one]
inhibition at 1 µM (5-HT transporter): 50%
Uptake (NA), rat, 10 μM, % inhibition (NA transporter): 32%

C=CCN1C(=O)C(CCSC)NC12CCN(C(=O)CCc1ccccc1)CC2 (centres unmarked) [Example 328, 1-Allyl-3-(2-methylsulfanylethyl)-8-(3-phenylpropionyl)-1,4,8-triazaspiro[4,5]decan-2-one]
inhibition at 1 µM (5-HT transporter): 32%
Uptake (NA), rat, 10 μM, % inhibition (NA transporter): 33%

CC(C)CC1NC2(CCN(C(=O)c3sccc3Cl)CC2)NC1=O (centres unmarked) [Example 94, 8-(3-Chlorothiophene-2-carbonyl)-3-isobutyl-1,4,8-triazaspiro[4,5]decan-2-one]
Uptake (NA), rat, 10 μM, % inhibition (NA transporter): 38%

CCSc1ncccc1C(=O)N1CCC2(CC1)NC(Cc1ccccc1)C(=O)N2C (centres unmarked) [Example 78, 3-Benzyl-8-(2-ethylsulfanylpyridin-3-carbonyl)-1-methyl-1,4,8-triazaspiro[4,5]decan-2-one]
inhibition at 1 µM (5-HT transporter): 56%
Uptake (NA), rat, 10 μM, % inhibition (NA transporter): 33%

N#Cc1ccccc1CN1C(=O)CNC12CCN(C(=O)C=Cc1ccccc1Cl)CC2 [Example 89, 2-{8-[3-(2-Chlorophenyl)acryloyl]-2-oxo-1,4,8-triazaspiro[4,5]dec-1-ylmethyl}benzonitrile]
inhibition at 1 µM (5-HT transporter): 43%
Uptake (NA), rat, 10 μM, % inhibition (NA transporter): 41%

CC(C)C1NC2(CCN(C(=O)c3ccco3)CC2)N(Cc2ccccc2C#N)C1=O (centres unmarked) [Example 103, 2-[8-(Furan-2-carbonyl)-3-isopropyl-2-oxo-1,4,8-triazaspiro[4,5]dec-1-ylmethyl]benzonitrile]
inhibition at 1 µM (5-HT transporter): 34%
Uptake (NA), rat, 10 μM, % inhibition (NA transporter): 30%

CC(C)CC1NC2(CCN(C(=O)c3cccc(Cl)c3)CC2)NC1=O (centres unmarked) [Example 90, 8-(3-Chlorobenzoyl)-3-isobutyl-1,4,8-triazaspiro[4,5]decan-2-one]
inhibition at 1 µM (5-HT transporter): 41%
Uptake (NA), rat, 10 μM, % inhibition (NA transporter): 35%

Cc1nnsc1C(=O)N1CCC2(CC1)NCC(=O)N2Cc1ccccc1 [Example 88, 1-Benzyl-8-(4-methyl[1,2,3]thiadiazole-5-carbonyl)-1,4,8-triazaspiro[4,5]decan-2-one]
inhibition at 1 µM (5-HT transporter): 34%
Uptake (NA), rat, 10 μM, % inhibition (NA transporter): 32%

CCOC(=O)CN1C(=O)C(Cc2ccccc2)NC12CCN(C(=O)c1ccc(S(N)(=O)=O)cc1)CC2 (centres unmarked) [Example 276, Ethyl [3-benzyl-2-oxo-8-(4-sulfamoylbenzoyl)-1,4,8-triazaspiro[4,5]dec-1-yl]acetate]
inhibition at 1 µM (5-HT transporter): 95%
Uptake (NA), rat, 10 μM, % inhibition (NA transporter): 46%

CSCCC1NC2(CCN(C(=O)c3ccc4c(c3)OCO4)CC2)N(Cc2cccc(C#N)c2)C1=O (centres unmarked) [Example 138, 3-[8-(Benzo[1,3]dioxol-5-carbonyl)-3-(2-methylsulfanylethyl)-2-oxo-1,4,8-triazaspiro[4,5]dec-1-ylmethyl]benzonitrile]
Uptake (NA), rat, 10 μM, % inhibition (NA transporter): 30%

CC(C)C1NC2(CCN(C(=O)c3ccncc3)CC2)N(Cc2ccccc2)C1=O (centres unmarked) [Example 98, 1-Benzyl-3-isopropyl-8-(pyridin-4-carbonyl)-1,4,8-triazaspiro[4,5]decan-2-one]
inhibition at 1 µM (5-HT transporter): 57%
Uptake (NA), rat, 10 μM, % inhibition (NA transporter): 36%

C=CCN1C(=O)C(CCSC)NC12CCN(C(=O)C1CC1)CC2 (centres unmarked) [Example 281, 1-Allyl-8-cyclopropanecarbonyl-3-(2-methylsulfanylethyl)-1,4,8-triazaspiro[4,5]decan-2-one]
inhibition at 1 µM (5-HT transporter): 56%
Uptake (NA), rat, 10 μM, % inhibition (NA transporter): 30%

CCCCN1C(=O)C(CCSC)NC12CCN(C(=O)c1ccc(C#N)cc1)CC2 (centres unmarked) [Example 125, 4-[1-Butyl-3-(2-methylsulfanylethyl)-2-oxo-1,4,8-triazaspiro[4,5]decan-8-carbonyl]benzonitrile]
inhibition at 1 µM (5-HT transporter): 44%
Uptake (NA), rat, 10 μM, % inhibition (NA transporter): 36%

CCOC(=O)C(C)(C)C(=O)N1CCC2(CC1)NC(CC(C)C)C(=O)N2CCCCOC(C)=O (centres unmarked) [Example 278, Ethyl 2-[1-(4-acetoxybutyl)-3-isobutyl-2-oxo-1,4,8-triazaspiro[4,5]dec-8-yl]-1,1-dimethyl-2-oxo-acetate]
Uptake 5-HT, rat, 1 μM, % inhibition (5-HT transporter): 39%
Uptake (NA), rat, 10 μM, % inhibition (NA transporter): 56%

Cc1cccc(C(=O)N2CCC3(CC2)NC(=O)C(Cc2ccccc2)N3)c1C (centres unmarked) [Example 108, 3-Benzyl-8-(2,3-dimethylbenzoyl)-1,4,8-triazaspiro[4,5]decan-2-one]
Uptake (NA), rat, 10 μM, % inhibition (NA transporter): 37%

CSCCC1NC2(CCN(C(=O)c3cccc(F)c3)CC2)N(C)C1=O (centres unmarked) [Example 121, 8-(3-Fluorobenzoyl)-1-methyl-3-(2-methylsulfanylethyl)-1,4,8-triazaspiro[4,5]decan-2-one]
inhibition at 1 µM (5-HT transporter): 41%
Uptake (NA), rat, 10 μM, % inhibition (NA transporter): 37%

COc1cc(C(=O)N2CCC3(CC2)NCC(=O)N3Cc2ccccc2F)cc(OC)c1OC [Example 271, 1-(2-Fluorobenzyl)-8-(3,4,5-trimethoxybenzoyl)-1,4,8-triazaspiro[4,5]decan-2-one]
inhibition at 1 µM (5-HT transporter): 44%
Uptake (NA), rat, 10 μM, % inhibition (NA transporter): 31%

N#Cc1cccc(CN2C(=O)CNC23CCN(C(=O)c2cc(C(F)(F)F)cc(C(F)(F)F)c2)CC3)c1 [Example 273, 3-[8-(3,5-Bis-trifluoromethylbenzoyl)-2-oxo-1,4,8-triazaspiro[4,5]dec-1-ylmethyl]benzonitrile]
inhibition at 1 µM (5-HT transporter): 51%
Uptake (NA), rat, 10 μM, % inhibition (NA transporter): 38%
